How the values were obtained:
[1] = biological target: human plasma kallikrein (Homo sapiens, UniProt P03952); assay: Kallikrein inhibition assay utilizing a quenched AMC peptide substrate (FLINT); assay type: biochemical; conditions: kinetic reads at 5 min intervals over 30 min; 30 min preincubation; Z-Gly-Pro-Arg-AMC substrate; read-out: Kallikrein (KIN) IC50
Description: Biological Example 2: Kallikrein Inhibition Assay Utilizing a Quenched AMC Peptide Substrate
A fluorescence intensity (FLINT) based assay was used to monitor inhibition of human plasma kallikrein. The peptide substrate, Z-Gly-Pro-Arg-AMC (Purchased from Bachem; Catalog #I-1150) was chosen based on its relatively low KM for kallikrein which enables running the assay at lower substrate concentrations to control background fluorescence. The kinetic parameters for this substrate were determined by fitting titration data to the Michaelis-Menten equation yielding a KM=40 μM, kcat=0.76 s^−1, and kcat/KM=18932 M^−1s^−1.
The Kallikrein FLINT assay was used with the following Z-Gly-Pro-Arg-AMC assay buffer: 50 mM Tris, pH 7.5, 100 mM NaCl, 5 mM CaCl2, 0.1 mg/mL BSA, 0.03% CHAPS. Assay buffer was prepared by mixing all ingredients fresh. 2× Z-Gly-Pro-Arg-AMC peptide substrate was prepared by diluting 10 mM stock into 1× assay buffer for a 100 μM working concentration (50 μM final concentration). The 2× kallikrein stock solution was prepared by diluting 14.76 μM stock in 1× assay buffer for a 4 nM working stock solution (2 nM final concentration).
Test compound(s) were run in an 11-point, 3-fold serial dilution with a final top compound concentration of 1 μM. Final DMSO in assay was 2%. Plasma kallikrein was pre-incubated for 30-minute with compound and then 50 μM substrate was added to initiate the reaction. The assay was run with kinetic (KIN) reads at 5 min intervals over 30 minutes. The time course was linear using 2 nM kallikrein greater than 30 minutes. More specifically, the assay was run as follows: • 100 nL of 0.1 mM test compound was dispensed into black 384-well non-binding Greiner BioOne 784900 plate for 1 μM final concentration; • 5 μL of 1× assay buffer was dispensed to columns 24 (low control) and 5 μL 2× human kallikrein enzyme solution was dispensed to columns 1-23 (column 23 high control); • the plate was centrifuged with a “cover” plate at 500 rpm for 1 min the plate was pre-incubated for 30 minutes at room temperature with plate covered; • 5 μL of 2× Z-Gly-Pro-Arg-AMC peptide substrate was dispensed into the entire plate, columns 1-24; • the plate was centrifuged with a “cover” plate at 500 rpm for 1 min; • the plate was read monitoring fluorescence intensity on the BMG PHERAStar at room temperature, using fluorescence module 340 nm/440 nm.
Percent inhibition (IC50) curves were generated per compound tested, and data was analyzed using a 4-parameter logistic fit using GeneData Screener. The relative fluorescence unit (RFU) values were normalized to percent inhibition using the following equation: % inhibition=((HC−LC)−(compound−LC)/(HC−LC))*100
where LC—low control=mean signal of […] 100% inhibition of human kallikrein enzyme; HC—high control=mean signal of […]+Z-Gly-Pro-Arg-AMC peptide substrate with DMSO only.
(§1) An 11-point dose response curve for the test compound(s) was generated using GENDATA to determine IC50 value based on the following equation: Y=Bottom+(Top−Bottom)/(1+10^((log IC50−X)*HillSlope))
(§2) where Y is the % inhibition in the presence of X inhibitor concentration, Top=high control=mean signal of human kallikrein enzyme+Z-Gly-Pro-Arg-AMC peptide substrate with DMSO only; Bottom=low control−mean signal of no human kallikrein enzyme or 100% inhibition of human kallikrein enzyme; HillSlope—Hill coefficient; and IC50=concentration of compound with 50% inhibition in relation to top/high control.
Representative compounds of formula (I) of the present invention were tested according to the procedure described in Biological Example 1 and Biological Example 2 above, with results as listed in Table 2, below. Results listed in the (ER) column were measured using endpoint reads where a single fluorescence reading was measured for each well at a 30 min timepoint. […]

[2] = biological target: Factor XIa (Homo sapiens, UniProt P03951); assay: Factor XIa inhibition assay utilizing a fluorophore-quencher pair peptide substrate (FLINT); assay type: biochemical; conditions: kinetic reads at 5 min intervals over 30 min; 30 min preincubation; 5Fam-KLTRAETV-K5Tamra substrate; read-out: FXIa (KIN) IC50
Sequence of Factor XIa (P03951 388-625 limits assumed): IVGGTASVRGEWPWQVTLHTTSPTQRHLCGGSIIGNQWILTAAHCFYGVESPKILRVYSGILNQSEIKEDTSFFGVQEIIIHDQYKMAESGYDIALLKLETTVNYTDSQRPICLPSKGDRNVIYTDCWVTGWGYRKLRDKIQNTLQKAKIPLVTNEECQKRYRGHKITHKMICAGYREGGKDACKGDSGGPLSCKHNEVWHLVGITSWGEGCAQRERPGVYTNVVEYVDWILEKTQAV
Sequence of Factor XIa (P03951 19-387 partner limits assumed): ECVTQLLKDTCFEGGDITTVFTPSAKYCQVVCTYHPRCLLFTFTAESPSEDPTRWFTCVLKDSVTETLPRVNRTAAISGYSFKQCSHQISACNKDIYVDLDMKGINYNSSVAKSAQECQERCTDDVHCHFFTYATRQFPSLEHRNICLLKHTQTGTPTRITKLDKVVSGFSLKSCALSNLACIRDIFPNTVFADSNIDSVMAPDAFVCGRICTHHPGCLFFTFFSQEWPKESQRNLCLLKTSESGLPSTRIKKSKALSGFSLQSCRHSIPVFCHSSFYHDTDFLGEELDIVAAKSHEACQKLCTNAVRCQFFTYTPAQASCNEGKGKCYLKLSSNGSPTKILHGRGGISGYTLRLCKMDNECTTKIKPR
Description: Biological Example 1: Factor XIa Inhibition Assay Utilizing a Fluorophore-Quencher Pair Peptide Substrate
A fluorescence intensity (FLINT) based assay was used to monitor inhibition of Factor XIa. The peptide substrate, 5Fam-KLTRAETV-K5Tamra (purchased from New England Peptide) was chosen based on the […]. Conversion of zymogen […]. The custom peptide used in this assay was based on the Arg146 cleavage site of FXI. The peptide substrate was designed with a fluorophore-quencher pair, where the fluorescence is quenched until FXIa cleaves the 8-mer peptide after the Arg residue. The substrate KM was fit to a substrate inhibition model whereby kcat=0.86 s^−1, KM=12.4 μM, Ki=61.6 μM with an enzymatic efficiency, and kcat/KM=69523 M^−1s^−1.
The Factor XIa FLINT assay was used with the following 5Fam-KLTRAETV-K5Tamra assay buffer: 50 mM Tris, pH 7.5, 100 mM NaCl, 5 mM CaCl2, 0.1 mg/mL BSA, 0.03% CHAPS. Assay buffer was prepared by mixing all ingredients fresh. 5Fam-KLTRAETV-K5Tamra peptide substrate was first prepared at 10 mM in 100% DMSO, then diluted to 3 mM in 100% DMSO. Assay buffer was then added directly to the 3 mM stock of substrate to prepare the 30 μM 2× working concentration (15 μM final concentration). The 2× Factor XIa stock solution was prepared by diluting 6.562 μM stock in 1× assay buffer for a 200 pM working stock solution (100 pM final concentration).
Test compound(s) were run in an 11-point, 3-fold serial dilution with a final top compound concentration of 100 nM. Final DMSO in assay was 2%. FXIa was preincubated with compound for 30-minutes and then substrate was added to initiate the reaction. The assay was run with either end point (EP) reads at 30 min or kinetic (KIN) reads at 5 min intervals over 30 minutes. The time course was linear using 100 μM FXIa greater than 30 minutes. More specifically, the assay was run as follows: • 100 nL of 0.01 mM test compound was dispensed into black 384-well non-binding Greiner BioOne 784900 plate for 0.1 μM final concentration; • 5 μL of 1× assay buffer was dispensed to column 24 (low control) and 5 μL 2× Factor XIa solution was dispensed to columns 1-23 (column 23 high control); • the plate was centrifuged with a “cover” plate at 500 rpm for 1 min the plate was pre-incubated for 30 minutes at room temperature with plate covered; • 5 μL of 2× 5Fam-KLTRAETV-K5Tamra peptide substrate was dispensed into the entire plate, columns 1-24; • the plate was centrifuged with a “cover” plate at 500 rpm for 1 min; • the plate was read monitoring fluorescence intensity on the BMG PHERAStar at room temperature, using fluorescence module 485 nm/520 nm.
Percent inhibition (IC50) curves were generated per compound tested, and data was analyzed using a 4-parameter logistic fit using GeneData Screener. The relative fluorescence unit (RFU) values were normalized to percent inhibition using the following equation: % inhibition=((HC−LC)−(compound−LC)/(HC−LC))*100 where LC—low control=mean signal of no Factor XIa or 100% inhibition of Factor XIa; HC—high control=mean signal of Factor XIa+5Fam-KLTRAETV-K5Tamra peptide substrate with DMSO only.
as §1
as §2, with “Factor XIa+5Fam-KLTRAETV-K5Tamra” for “human kallikrein enzyme+Z-Gly-Pro-Arg-AMC”, “Factor XIa” for “human kallikrein enzyme”, “Factor XIa;” for “human kallikrein enzyme;”, “control. […]” for “control.”

Sequence of human plasma kallikrein (P03952 391-638 limits assumed): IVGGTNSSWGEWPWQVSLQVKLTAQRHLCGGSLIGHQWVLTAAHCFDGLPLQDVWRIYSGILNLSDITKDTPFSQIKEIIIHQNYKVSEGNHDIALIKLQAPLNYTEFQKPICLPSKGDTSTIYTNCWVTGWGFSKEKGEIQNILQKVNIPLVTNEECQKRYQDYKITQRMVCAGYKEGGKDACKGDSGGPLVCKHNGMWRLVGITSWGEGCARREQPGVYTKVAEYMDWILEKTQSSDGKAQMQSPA
Sequence of human plasma kallikrein (P03952 20-390 partner limits assumed): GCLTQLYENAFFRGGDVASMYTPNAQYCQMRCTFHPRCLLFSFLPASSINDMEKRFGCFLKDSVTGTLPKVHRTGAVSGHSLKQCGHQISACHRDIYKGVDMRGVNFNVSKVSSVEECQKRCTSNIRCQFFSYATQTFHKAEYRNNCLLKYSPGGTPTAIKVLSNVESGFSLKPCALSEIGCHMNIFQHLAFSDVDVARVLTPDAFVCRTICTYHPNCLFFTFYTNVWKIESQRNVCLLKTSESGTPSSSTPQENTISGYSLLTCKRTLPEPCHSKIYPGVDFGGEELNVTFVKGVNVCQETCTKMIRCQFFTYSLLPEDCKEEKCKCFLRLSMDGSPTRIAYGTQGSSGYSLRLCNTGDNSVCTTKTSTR

Row | SMILES | IC50 [1] [µM] | IC50 [2] [µM]
1 | NC(=O)c1ccc(-c2cnn(C3CCc4cc(-c5c(-n6cc(C(F)(F)F)nn6)ccc(Cl)c5F)c[n+]([O-])c43)c2)cc1F (single isomer, unassigned) [ID No. 27, (R*)7-(4-(4-Carbamoyl-3-fluorophenyl)-1H-pyrazol-1-yl)-3-(3-chloro-2-fluoro-6-(4-(trifluoromethyl)-1H-1,2,3-triazol-1-yl)phenyl)-6,7-dihydro-5H-cyclopenta[b]pyridine 1-oxide] | 0.24 | > 0.1
2 | NC(=O)c1ccc(-c2cnn(C3CCc4cc(-c5c(-n6cc(C(F)(F)F)nn6)ccc(Cl)c5F)c[n+]([O-])c43)c2)cc1F (single isomer, unassigned) [ID No. 28, (S*)-7-(4-(4-Carbamoyl-3-fluorophenyl)-1H-pyrazol-1-yl)-3-(3-chloro-2-fluoro-6-(4-(trifluoromethyl)-1H-1,2,3-triazol-1-yl)phenyl)-6,7-dihydro-5H-cyclopenta[b]pyridine 1-oxide] | 0.067 | 0.037
3 | COC(=O)Nc1ccc(-c2cn(C3CCc4cc(-c5c(-n6cnnn6)ccc(Cl)c5F)c[n+]([O-])c43)cn2)cc1 (centres unmarked) [ID No. 2, 3-(3-Chloro-2-fluoro-6-(1H-tetrazol-1-yl)phenyl)-7-(4-(4-((methoxycarbonyl)amino)phenyl)-1H-imidazol-1-yl)-6,7-dihydro-5H-cyclopenta[b]pyridine 1-oxide] | 0.461 | 0.024
4 | Cn1nncc1-c1cnn([C@H]2CCc3cc(-c4c(-n5cnnn5)ccc(Cl)c4F)c[n+]([O-])c32)c1 [ID No. 25, (S)-3-(3-Chloro-2-fluoro-6-(1H-tetrazol-1-yl)phenyl)-7-(4-(1-methyl-1H-1,2,3-triazol-5-yl)-1H-pyrazol-1-yl)-6,7-dihydro-5H-cyclopenta[b]pyridine 1-oxide] | > 10 | > 10

Continued, values first:

Row | IC50 [1] [µM] | IC50 [2] [µM] | SMILES
5 | 0.987 | 0.04 | Nc1ccc(-c2cnn(C3CCCc4cc(-c5c(-n6cnnn6)ccc(Cl)c5F)c[n+]([O-])c43)c2)c(F)n1 (single isomer, unassigned) [ID No. 31, (R*)-8-(4-(6-Amino-2-fluoropyridin-3-yl)-1H-pyrazol-1-yl)-3-(3-chloro-2-fluoro-6-(1H-tetrazol-1-yl)phenyl)-5,6,7,8-tetrahydroquinoline 1-oxide]
6 | > 10 | > 10 | Nc1ccc(-c2cnn(C3CCCc4cc(-c5c(-n6cnnn6)ccc(Cl)c5F)c[n+]([O-])c43)c2)c(F)n1 (single isomer, unassigned) [ID No. 32, (S*)-8-(4-(6-Amino-2-fluoropyridin-3-yl)-1H-pyrazol-1-yl)-3-(3-chloro-2-fluoro-6-(1H-tetrazol-1-yl)phenyl)-5,6,7,8-tetrahydroquinoline 1-oxide]
7 | 4.04 | 0.042 | Cn1nncc1-c1cnn([C@@H]2CCc3cc(-c4c(-n5cnnn5)ccc(Cl)c4F)c[n+]([O-])c32)c1 [ID No. 26, (R)-3-(3-Chloro-2-fluoro-6-(1H-tetrazol-1-yl)phenyl)-7-(4-(1-methyl-1H-1,2,3-triazol-5-yl)-1H-pyrazol-1-yl)-6,7-dihydro-5H-cyclopenta[b]pyridine 1-oxide]
